Peptide text beside a SMILES is read from it. * marks the point of attachment. Cbz = O=C(OCc1ccccc1)*
How the values were obtained:
[1] = system: HeLa cells expressing the probe reagent mKO2-Nrf2—100-T2A-Keap1; experiment: Evaluation of a probe reagent by imaging of a cell (mKO2 fluorescence, time-lapse microscope); format: cell-based, human
Protocol: The prepared cDNA was transfected into HeLa cells that were cultured on a glass bottom dish by using FuGENE HD (manufactured by Roche Applied Science). The medium was replaced by the fresh medium 12 hours after the transfection. […] This microscope was equipped with a cooled CCD camera so that fluorescent images of a cell were able to be captured over time.
In order to verify that the constructed probe reagent responded correctly to oxidative stress as intended, diethylmaleate (DEM), which is an oxidative stress inducer, was added at a concentration of 100 μM, and the fluorescent intensity of mKO2 (ex; BP520-540HQ, em; BP555-600HQ) was measured. […] When ethanol, a solvent, was added at 0.1% as a control, the fluorescent intensity of mKO2 was not increased.
In order to verify that this probe reagent was degraded by a proteasome in a cell under conditions without being exposed to oxidative stress, an experiment using a proteasome inhibitor, MG132, was carried out. […] In contrast, after dimethylsulfoxide (DMSO), a solvent, was added at 0.1% as a control, the fluorescent intensity of mKO2 was not increased (FIG. 5).

[2] = system: mKO2-Nrf2 fusion molecule in HeLa cells; experiment: Evaluation of a probe reagent by Western blotting using an anti-Nrf2 antibody; format: cell-based, human; details: MG132 10 μM versus 0.1% DMSO; FIG. 6
Protocol: First, to confirm that this probe reagent was separated into an mKO2-Nrf2 fusion molecule and Keap1 by the T2A peptide in a cell, the following experiments were performed. The cDNA, which was prepared using FuGENE® HD (Roche Applied Science Inc.), was transfected into HeLa cells cultured on a 35-mm dish. The medium was replaced by the fresh medium 12 hours after the transfection. After the 12 hours, DEM was added at a concentration of 100 μM, and ethanol was added at 0.1% as a control. The cells were cultured for further 8 hours. After that, Western blotting was conducted by using an anti-Nrf2 antibody (Santa Cruz Inc.). Both in the case of adding DEM and the case of adding ethanol, the band of the mKO2-Nrf2 fusion molecule was detected, but the band of the probe reagent comprising linked Keap1 was hardly observed.
Next, the fact that this probe reagent was degraded by a proteasome in a cell was confirmed by performing Western blotting. A proteasome inhibitor, MG132, was added at a concentration of 10 μM to HeLa cells that had been cultured in a similar manner. DMSO was added at 0.1% to control cells as well.

Question: For CCOC(=O)/C=C\C(=O)OCC [DEM, diethylmaleate], which “increase in the fluorescent intensity of mKO2” value ([1]; DEM added at 100 μM, HeLa cells transfected with probe cDNA, control 0.1% ethanol gave no increase, FIG. 3) is on record?
Answer: The value was “more than 10 times”.

Question: What does the source list for CC(C)C[C@@H](C=O)NC(=O)[C@H](CC(C)C)NC(=O)[C@H](CC(C)C)NC(=O)OCc1ccccc1 [MG132] (Cbz-Leu-Leu-Leu-aldehyde)?
Answer: fluorescent intensity of mKO2 ([1]; MG132 added at 10 μM, control 0.1% DMSO gave no increase, FIG. 5): increase in the fluorescent intensity of mKO2 was observed; band of the mKO2-Nrf2 fusion molecule (amount of probe reagent) [2]: strong band was detected compared to the case of adding DMSO

Question: Which “fluorescence of cells expressing the probe reagent before the experiment” value ([1]; no oxidative stress loaded, 24 hours after medium change) does the source give for “probe reagent: fusion protein: fluorescent protein mKO2, Nrf2 amino acids 1 to 100, self-cleaved peptide T2A and Keap1; encoded by SEQ ID NO: 7” here?
Answer: Its value is “only fluorescence at the background light level was detected”.

— US8865124B2, “Probe reagent for measuring oxidative stress” (Japan Science and Technology Agency, priority 2008, dated 2014)
